Experiments:
[1] = system: 1a(H77) 5'UTR-NS5A recombinant virus; test: High-throughput DAA treatment assay of infected Huh7.5 cells, 1a(H77)5-5A virus; assay type: cell-based, hepatitis C virus; settings: for EC50 fold-difference relative to J6/JFH1, more sensitive: 1a(H77)5-5A virus more sensitive than J6/JFH1; for EC50 fold-difference from J6/JFH1: 1a(H77)5-5A virus, difference in sensitivity compared to J6/JFH1
Method: (§1) Huh7.5 cells in 96-well culture plates were infected with 5′UTR-NS5A specific genotype(isolate) recombinants. For details on the 5-5A virus stocks see FIG. 3. J6/JFH1 was a first-passage stock with no mutations in the ORF. Cultures were treated with seven protease inhibitors and the NS5A inhibitor daclatasvir. Values are means of triplicates in the experiment with ±SEM.
(§2) HCV DAAs were purchased from Acme Bioscience and dissolved in dimethyl sulfoxide (Sigma). High throughput treatment assays have been previously established. Concentration-response curves, EC50 values, and 95% confidence interval were calculated in GraphPad Prism 5 as described. Cytotoxicity assays to determine the non-cytotoxic dose range of the anti-HCV drugs were performed.
(§3) Since no mutations appeared in the NS3 protease region in first-passage 5-5A recombinants, these culture viruses could be ideal models for studying the efficacy of PIs in a genotype-specific manner. We thus generated virus stocks from first-passage 1a(H77 and TN) and second-passage 3a(S52), 4a(ED43), 5a(SA13), and 6a(HK6a) 5-5A viruses (FIG. 3) for PI treatment experiments. Additionally, we generated a first-passage stock of 2a J6/JFH1. We confirmed that virus stocks used for treatment were without NS3 protease mutations (FIGS. 5-9). We tested virus sensitivity to the most advanced PIs: telaprevir (VX-950), boceprevir (SCH503034), asunaprevir (BMS-650032), simeprevir (TMC435350), vaniprevir (MK-7009), faldaprevir (BI201335), and MK-5172. […] The median effective concentration (EC50) representing the efficacy of drugs against the treated viruses was calculated from the concentration-response curves (FIGS. 2, 4 and 10). For a given inhibitor, EC50 fold-differences relative to J6/JFH1 were calculated for each genotype recombinant and used to describe whether a recombinant was more sensitive (fold-difference <1) or resistant (fold-difference >1) than J6/JFH1.

[2] = system: HCV genotype 1-6 recombinant viruses; test: High-throughput DAA treatment assay of infected Huh7.5 cells, whole panel of genotype 1-6 recombinant viruses; assay type: cell-based, hepatitis C virus; settings: for Inhibition of genotype 1-6 recombinant viruses: infected Huh7.5 cells, concentration-response
Method: as §1, §2, §3

[3] = system: J6/JFH1 (HCV genotype 2a recombinant); test: High-throughput DAA treatment assay of infected Huh7.5 cells, J6/JFH1 virus; assay type: cell-based; settings: Hepatitis C virus, first-passage 2a J6/JFH1 stock, read-out: EC50 against J6/JFH1
Method: as §1, §2, §3

[4] = system: 3a(S52) 5'UTR-NS5A recombinant virus; test: High-throughput DAA treatment assay of infected Huh7.5 cells, 3a(S52)5-5A virus; assay type: cell-based, hepatitis C virus; settings: 3a(S52)5-5A virus more resistant (less sensitive) than J6/JFH1
Method: as §1, §2, §3

[5] = system: 6a(HK6a) 5'UTR-NS5A recombinant virus; test: High-throughput DAA treatment assay of infected Huh7.5 cells, 6a(HK6a)5-5A virus; assay type: cell-based, hepatitis C virus; settings: for EC50 fold-difference from J6/JFH1: 6a(HK6a)5-5A virus, difference in sensitivity compared to J6/JFH1; for EC50 fold-difference relative to J6/JFH1, more sensitive: 6a(HK6a)5-5A virus more sensitive than J6/JFH1
Method: as §1, §2, §3

[6] = system: 4a(ED43) 5'UTR-NS5A recombinant virus; test: High-throughput DAA treatment assay of infected Huh7.5 cells, 4a(ED43)5-5A virus; assay type: cell-based, hepatitis C virus; settings: for EC50 fold-difference relative to J6/JFH1, more sensitive: 4a(ED43)5-5A virus more sensitive than J6/JFH1; for EC50 fold-difference relative to J6/JFH1, more resistant: 4a(ED43)5-5A virus more resistant than J6/JFH1
Method: as §1, §2, §3

[7] = system: 5a(SA13) 5'UTR-NS5A recombinant virus; test: High-throughput DAA treatment assay of infected Huh7.5 cells, 5a(SA13)5-5A virus; assay type: cell-based, hepatitis C virus; settings: for EC50 fold-difference from J6/JFH1: 5a(SA13)5-5A virus, difference in sensitivity compared to J6/JFH1; for EC50 fold-difference relative to J6/JFH1, more sensitive: 5a(SA13)5-5A virus more sensitive than J6/JFH1
Method: as §1, §2, §3

[8] = system: 1a(TN) 5'UTR-NS5A recombinant virus; test: High-throughput DAA treatment assay of infected Huh7.5 cells, 1a(TN)5-5A virus; assay type: cell-based, hepatitis C virus; settings: for EC50 fold-difference from J6/JFH1: 1a(TN)5-5A virus, difference in sensitivity compared to J6/JFH1; for EC50 fold-difference relative to J6/JFH1, more sensitive: 1a(TN)5-5A virus more sensitive than J6/JFH1
Method: as §1, §2, §3

Compound	EC50 fold-difference relative to J6/JFH1, more sensitive [1]	Inhibition of genotype 1-6 recombinant viruses [2]	EC50 [3]	EC50 fold-difference relative to J6/JFH1, more resistant [4]	EC50 fold-difference from J6/JFH1 [5]	EC50 fold-difference relative to J6/JFH1, more sensitive [6]	EC50 fold-difference from J6/JFH1 [7]	EC50 fold-difference from J6/JFH1 [8]	EC50 fold-difference relative to J6/JFH1, more sensitive [5]	EC50 fold-difference relative to J6/JFH1, more resistant [6]	EC50 fold-difference relative to J6/JFH1, more sensitive [7]	EC50 fold-difference relative to J6/JFH1, more sensitive [8]	EC50 fold-difference from J6/JFH1 [1]	Potency relative to the other tested DAAs ([2]; all genotype recombinant viruses)	EC50 fold-difference from J6/JFH1 ([6]; 4a(ED43)5-5A virus, difference in sensitivity compared to J6/JFH1)
COc1ccc2c(O[C@@H]3C[C@H]4C(=O)N[C@]5(C(=O)NS(=O)(=O)C6CC6)C[C@H]5/C=C\CCCCN(C)C(=O)[C@@H]4C3)cc(-c3nc(C(C)C)cs3)nc2c1C [simeprevir]	~10 fold	concentration-dependently inhibited	91 nM	~27 fold	less than 2 fold	~10 fold	less than 2 fold	less than 2 fold	–	–	–	–	–	–	–
CC(C)(C)NC(=O)N[C@H](C(=O)N1C[C@H]2[C@@H]([C@H]1C(=O)NC(CC1CCC1)C(=O)C(N)=O)C2(C)C)C(C)(C)C (some centres unmarked) [boceprevir]	–	–	589 nM	~2 fold	–	–	–	–	~4 fold	~2 fold	–	–	–	–	–
C=C[C@@H]1C[C@]1(NC(=O)[C@@H]1C[C@@H](Oc2cc(-c3csc(NC(=O)C(C)C)n3)nc3c(Br)c(OC)ccc23)CN1C(=O)[C@@H](NC(=O)OC1CCCC1)C(C)(C)C)C(=O)O [faldaprevir]	~12 fold	concentration-dependently inhibited	–	~17 fold	–	~44 fold	–	–	~4 fold	–	~10 fold	~4 fold	–	–	–
COC(=O)N[C@H](C(=O)N1CCC[C@H]1c1nc(-c2ccc(-c3ccc(-c4c[nH]c([C@@H]5CCCN5C(=O)[C@@H](NC(=O)OC)C(C)C)n4)cc3)cc2)c[nH]1)C(C)C [daclatasvir]	–	–	–	~6 fold	< 3 fold	~5 fold	< 3 fold	< 3 fold	–	–	–	–	< 3 fold	–	–
CCC[C@H](NC(=O)[C@@H]1[C@H]2CCC[C@H]2CN1C(=O)[C@@H](NC(=O)[C@@H](NC(=O)c1cnccn1)C1CCCCC1)C(C)(C)C)C(=O)C(=O)NC1CC1 [telaprevir]	–	–	493 nM	~4 fold	–	–	–	–	~4 fold	~4 fold	–	–	–	–	–
C=C[C@@H]1C[C@]1(NC(=O)[C@@H]1C[C@@H](Oc2ncc(OC)c3ccc(Cl)cc23)CN1C(=O)[C@@H](NC(=O)OC(C)(C)C)C(C)(C)C)C(=O)NS(=O)(=O)C1CC1 [asunaprevir]	~5 fold	concentration-dependently inhibited	159 nM	~13 fold	–	~5 fold	–	–	2-3 fold	–	2-3 fold	2-3 fold	–	–	–
CC[C@@H]1C[C@]1(NC(=O)[C@@H]1C[C@@H]2CN1C(=O)[C@H](C(C)(C)C)NC(=O)OCC(C)(C)CCCCc1cccc3c1CN(C3)C(=O)O2)C(=O)NS(=O)(=O)C1CC1 [vaniprevir]	3-6 fold	concentration-dependently inhibited	88 nM	~22 fold	–	~10 fold	–	–	3-6 fold	–	3-6 fold	3-6 fold	–	–	–
C=C[C@@H]1C[C@]1(NC(=O)[C@@H]1C[C@@H]2CN1C(=O)[C@H](C(C)(C)C)NC(=O)O[C@@H]1C[C@H]1CCCCCc1nc3ccc(OC)cc3nc1O2)C(=O)NS(=O)(=O)C1CC1 [MK-5172]	–	concentration-dependently inhibited	–	~13 fold	less than 2 fold	–	less than 2 fold	less than 2 fold	–	–	–	–	less than 2 fold	the most potent PI with broad activity against HCV genotypes 1-6	less than 2 fold
